Paper PMC10870240 (Chembiochem : a European journal of chemical biology, 2023)

Molecular target: full-length CBP (Homo sapiens, UniProt Q92793)
Assay: cellular thermal shift assay
Assay type: biochemical
Conditions: 25 μM garcinolic acid, MV4-11 nuclear extract

full-length CBP, sequence (Q92793 2-2442): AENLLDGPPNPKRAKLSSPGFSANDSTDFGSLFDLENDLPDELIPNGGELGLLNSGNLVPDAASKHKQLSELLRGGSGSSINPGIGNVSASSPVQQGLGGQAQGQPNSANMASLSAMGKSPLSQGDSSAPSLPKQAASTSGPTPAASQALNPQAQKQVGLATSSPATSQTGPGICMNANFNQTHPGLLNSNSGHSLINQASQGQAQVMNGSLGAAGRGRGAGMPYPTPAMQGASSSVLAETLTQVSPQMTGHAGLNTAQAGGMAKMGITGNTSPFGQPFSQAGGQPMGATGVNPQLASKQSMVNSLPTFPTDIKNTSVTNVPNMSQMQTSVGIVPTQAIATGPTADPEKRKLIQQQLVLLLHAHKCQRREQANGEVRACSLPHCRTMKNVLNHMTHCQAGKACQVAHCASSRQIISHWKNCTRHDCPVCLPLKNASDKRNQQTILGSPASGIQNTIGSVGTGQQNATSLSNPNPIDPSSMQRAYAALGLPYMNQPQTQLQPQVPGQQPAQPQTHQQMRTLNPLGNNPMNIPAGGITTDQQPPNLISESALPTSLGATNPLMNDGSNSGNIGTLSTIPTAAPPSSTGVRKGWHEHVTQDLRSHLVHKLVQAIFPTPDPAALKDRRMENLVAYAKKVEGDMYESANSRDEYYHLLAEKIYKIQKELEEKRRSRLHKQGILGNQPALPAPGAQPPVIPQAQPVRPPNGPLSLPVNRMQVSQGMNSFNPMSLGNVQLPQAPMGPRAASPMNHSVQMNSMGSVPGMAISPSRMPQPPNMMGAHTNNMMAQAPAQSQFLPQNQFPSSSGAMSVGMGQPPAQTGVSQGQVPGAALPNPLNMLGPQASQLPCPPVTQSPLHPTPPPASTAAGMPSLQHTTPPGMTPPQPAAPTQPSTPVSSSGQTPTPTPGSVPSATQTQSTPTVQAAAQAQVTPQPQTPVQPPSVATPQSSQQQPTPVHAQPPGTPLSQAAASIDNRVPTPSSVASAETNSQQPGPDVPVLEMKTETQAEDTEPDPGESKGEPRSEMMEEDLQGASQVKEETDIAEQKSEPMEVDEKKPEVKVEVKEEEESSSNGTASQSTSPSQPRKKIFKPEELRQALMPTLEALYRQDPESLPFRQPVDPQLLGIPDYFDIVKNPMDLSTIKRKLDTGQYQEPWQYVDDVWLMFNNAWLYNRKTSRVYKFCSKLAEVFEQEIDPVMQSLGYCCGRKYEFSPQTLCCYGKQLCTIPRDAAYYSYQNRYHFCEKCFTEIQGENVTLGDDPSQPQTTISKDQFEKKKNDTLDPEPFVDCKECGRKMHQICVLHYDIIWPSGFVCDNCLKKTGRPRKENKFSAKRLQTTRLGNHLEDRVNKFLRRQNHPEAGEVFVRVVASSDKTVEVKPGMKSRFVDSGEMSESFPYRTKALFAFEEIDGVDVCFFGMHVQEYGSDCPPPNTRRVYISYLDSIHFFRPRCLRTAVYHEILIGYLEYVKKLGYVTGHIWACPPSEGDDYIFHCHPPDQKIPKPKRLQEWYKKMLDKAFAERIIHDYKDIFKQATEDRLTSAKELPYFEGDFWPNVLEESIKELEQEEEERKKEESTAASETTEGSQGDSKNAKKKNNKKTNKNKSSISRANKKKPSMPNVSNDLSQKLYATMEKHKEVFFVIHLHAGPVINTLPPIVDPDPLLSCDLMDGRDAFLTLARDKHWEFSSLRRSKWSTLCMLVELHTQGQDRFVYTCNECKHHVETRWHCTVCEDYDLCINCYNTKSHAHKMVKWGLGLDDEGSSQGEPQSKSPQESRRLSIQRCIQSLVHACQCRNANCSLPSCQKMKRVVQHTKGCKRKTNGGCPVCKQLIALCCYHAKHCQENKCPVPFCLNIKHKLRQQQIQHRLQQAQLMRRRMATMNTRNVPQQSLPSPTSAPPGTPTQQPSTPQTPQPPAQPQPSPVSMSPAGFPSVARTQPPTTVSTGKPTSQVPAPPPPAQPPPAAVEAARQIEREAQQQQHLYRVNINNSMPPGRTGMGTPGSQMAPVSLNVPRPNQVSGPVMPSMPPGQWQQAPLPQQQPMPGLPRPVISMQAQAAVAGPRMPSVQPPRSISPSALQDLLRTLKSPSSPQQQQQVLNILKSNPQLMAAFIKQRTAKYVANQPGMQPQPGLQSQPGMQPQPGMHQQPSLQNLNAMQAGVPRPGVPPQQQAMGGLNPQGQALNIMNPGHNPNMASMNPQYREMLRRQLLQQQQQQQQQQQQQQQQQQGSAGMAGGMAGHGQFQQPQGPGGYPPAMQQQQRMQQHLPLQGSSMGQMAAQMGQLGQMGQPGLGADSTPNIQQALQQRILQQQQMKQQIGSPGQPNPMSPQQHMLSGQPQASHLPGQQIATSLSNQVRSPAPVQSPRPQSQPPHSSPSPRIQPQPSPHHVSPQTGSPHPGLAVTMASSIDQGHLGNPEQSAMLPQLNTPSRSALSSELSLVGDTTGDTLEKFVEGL

## CC(C)=CCCC1(C)C=Cc2c(O)c3c(c(CC=C(C)C)c2O1)OC12C(=CCCC1C(C)(C)O[C@@]2(C/C=C(\C)C(=O)O)C(=O)O)C3=O (stereo partly shown) [garcinolic acid]
  cellular thermal shift assay (Western blot): intact CBP is still observed in the garcinolic acid treated samples
